# Where “and” joins values, the source holds several entries; their conditions need not be identical. Equal values may be shown once.
# Tests used:
# [1] = tested on: IgG (hyperimmune antiserum) PCA reaction; experiment: Oral activity in PCA test, IgG; assay type: in vivo; conditions: Rattus norvegicus, 3 mg./kg., read-out: Oral Activity (% of Protection) in the PCA Test, IgG
# Procedure: (§1) The antiallergy property of the compounds of this invention is evaluated by the passive cutaneous anaphylaxis (PCA) test (Ovary, J. Immun., 81, 355, 1958). In the PCA test, normal animals are injected intradermally (i.d.) with antibodies contained in serum obtained from actively sensitized animals. The animals are then challenged intravenously with antigen mixed with a dye such as Evans' Blue. The increased capillary permeability caused by the antigen-antibody reaction causes the dye to leak from the site of the antibody injection. The test animals are then asphyxiated and the intensity of the reaction determined by measuring the diameter and intensity of the blue coloration on the inner surface of the animals' skin.
# (§2) The ability of agents to interfere with PCA reactions is measured in male Charles River Wistar rats, 170-210 g. Reaginic antiserum, rich in IgE antibodies, is prepared according to Petillo et al., Int. Arch. Allergy, 44, 309 (1973). Hyperimmune antiserum rich in IgG antibodies to hen egg albumin is prepared according to Orange et al., J. Exptl. Med., 127, 767 (1968). Forty-eight hours prior to antigen challenge, the reaginic antiserum is injected intradermally (i.d.) into the shaved skin of a normal rat's back; 5 hours before challenge the hyperimmune antisera is similarly injected. At a third site 60 mcg. histamine dihydrochloride and 0.5 mcg. serotonin creatinine sulfate are injected i.d. just prior to antigen challenge as a check for antihistaminic, antiserotonin and unspecific types of blockage; the compounds of the instant invention or saline are then administered i.v. and immediately followed by the challenge of 5 mg. egg albumen and 2.5 mg. Evans' Blue dye in saline. In the case of oral administration Evans' Blue dye and egg albumin are given 5 minutes after administration of the drug. Thirty minutes later the animals are asphyxiated using chloroform and the skin of the back removed and reversed for observation. A score is assigned each injection site equal to the product of the diameter of the site in mm. and a grade of 0.1, 0.5, 1, 2, 3 or 4 proportional to intensity of dye coloration. The scores for a given injection site are summed for each group of five animals and compared to the saline treated controls. The difference is expressed as percent blockage due to the compound employed.
# Compounds representative of those of the present invention are tested for antiallergy activity by the above-described procedure and the resulting activities are reported as the degree (%) of protection.
# [2] = tested on: isolated rat monocytes; experiment: Synthesis and release of SRC in isolated monocytes stimulated by an ionophore; assay type: cell-based
# [3] = tested on: ethanol-induced ulcer; experiment: Ethanol-induced rat ulcer assay; assay type: in vivo; conditions: oral, 5 mg./kg.; Table III; listed as Formula I: (CH2)4
# Procedure: Alternatively, the effectiveness of the products of this invention as antiulcer agents is determined in an ethanol-induced rat ulcer assay. In this test, overnight fasted male rats are given drug (5 mg./kg.) or water orally fifteen minutes prior to an orally administered dose of absolute ethanol (1.0 ml.). One hour after the ethanol challenge the animals (8/group) are killed and the stomachs examined for the presence of lesions. All drugs were dissolved in dilute NaOH. After sacrifice the abdomen is opened and a locking hemostat placed at the pylorus. 6 ml. of a 4% solution of formaldehyde was injected into the stomach with a gastric feeding tube and a second locking hemostat was used to seal the esophagus. The stomach was removed, opened along the greater curvature and examined for ulceration.
# The scoring system used to quantitate the ethanol-induced lesions is given below.
# For each group of animals an ulcer index is calculated as follows:
# Ulceration Index=(the sum of the scores of the group)×(the sum of the number of ulcers in the group)×(the fraction of the group having any incidence of ulceration).
# The percentage inhibition of ulcers is calculated as follows:
# % Inhibition=100×[(ulcer index controls)-(ulcer index drug-treated)].div.(ulcer index controls).
# [4] = tested on: IgE (reaginic antiserum) PCA reaction; experiment: Oral activity in PCA test, IgE; assay type: in vivo, rat
# Procedure: as §1
# The PCA test is a measure of the anti-allergic (especially anti-asthmatic) activity of a compound. Compounds which inhibit a positive PCA test induced by the rat immunochemical counterpart of human immunoglobulin E (IgE), or reagin, are considered to have anti-allergic activity (C. Mota, Ann. N.Y. Acad. Sci., 103, 264 1963). (Reagin is primarily immunoglobulin E [IgE] and is the principal immunoglobulin responsible for allergic asthma, anaphylaxis, hay fever, food sensitivities and certain manifestations of drug sensitivities, although recent evidence ascribes to the IgG class of antibodies a significant role in the mediation of allergic diseases). Such compounds when administered to a sensitized subject, human or animal, prior to the time when the subject comes into contact with antigens or substances to which it is allergic, will prevent the allergic reaction which would otherwise occur. They, therefore, provide a method for the prophylactic treatment of allergy or anaphylactic reactions of a reagin mediated nature.
# To put it another way, such compounds block the release of mediators resulting from the antigen-antibody (allergic) reaction as illustrated in the PCA test using rat homocytotropic antibody--a known correlate of human reaginic antibody. Inhibition of reaginic antigen-antibody reactions in rats, the test animal of the PCA test, is regarded as representative of inhibition of human reaginic antigen-antibody reactions which occur during allergic episodes.
# as §2, with “employed. […]” for “employed.”
# [5] = tested on: isolated guinea pig ileum (slow reacting substance of anaphylaxis); experiment: Isolated ileum spasm, slow reacting substance of anaphylaxis; conditions: 10^-8 to 10^-4 M
# [6] = tested on: isolated guinea pig ileum (histamine); experiment: Isolated ileum spasm, histamine; conditions: 10^-8 to 10^-4 M
# [7] = tested on: pentagastrin-stimulated acid output; experiment: Pentagastrin-stimulated acid output in Heidenhain pouch dogs; assay type: in vivo, dog; conditions: 5 mg/kg, i.v.
compound,measurement,setting,value
"O=C(Nc1nnn[nH]1)c1cnc2sc3c(n2c1=O)CCCC3 [Compound III, N-(5-Tetrazolyl)-1-oxo-1H-cyclohexenothiazolo[3,2-a]pyrimidine-2-carboxamide]",inhibition in vivo at 3 mg/kg,[1],45%
same,synthesis and release of SRC,[2],is not inhibited
same,"% Inhibition in the Ethanol-Induced Rat Ulcer Assay, amides",[3],97% and 81%
same,inhibition in vivo at 3 mg/kg,"[4]; Rattus norvegicus, IgE, oral, 3 mg./kg., read-out: Oral Activity (% of Protection) in the PCA Test, IgE",47%
same,oral activity,[4]; oral,excellent oral activity
same,dose range for antiallergy effects,"[4]; rat, in vivo",1 to 10 mg/kg
same,antagonism of spasm of isolated guinea pig ileum,[5],does not antagonize spasms
same,antagonism of spasm of isolated guinea pig ileum,[6],does not antagonize spasms
same,pentagastrin-stimulated acid output,[7],does not affect pentagastrin-stimulated acid output
